Experimental data from PubChem BioAssay AID192 (DTP/NCI, 2004).
Inconclusive results and toxic doses are left out.

Tested on: BDF1 mice, B16 melanoma ip, median survival T/C
Experiment: NCI In Vivo Anticancer Drug Screen. Data for tumor model B16 Melanoma (intraperitoneal) in B6D2F1 (BDF1) mice
Settings: endpoint: median survival time, higher = longer survival
How it was run: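 Values are ratios of treated (T) to vehicle-control (C) measurements of survival or tumor size in tumor-bearing mice.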

[1] = dose: 6.25 mg/kg/injection, schedule: Q01DX009 (ip), vehicle: saline
[2] = dose: 12.5 mg/kg/injection, schedule: Q01DX009 (ip), vehicle: saline
[3] = dose: 100.0 mg/kg/injection, schedule: Q01DX009 (ip), vehicle: saline with Tween-80
[4] = dose: 200.0 mg/kg/injection, schedule: Q01DX009 (ip), vehicle: saline with Tween-80
[5] = dose: 50.0 mg/kg/injection, schedule: Q01DX009 (ip), vehicle: saline with Tween-80
[6] = dose: 100.0 mg/kg/injection, schedule: Q01DX009 (ip), vehicle: Klucel (hydroxypropylcellulose) (HPC)
[7] = dose: 200.0 mg/kg/injection, schedule: Q01DX009 (ip), vehicle: Klucel (hydroxypropylcellulose) (HPC)
[8] = dose: 12.5 mg/kg/injection, schedule: Q01DX009 (ip), vehicle: Klucel (hydroxypropylcellulose) (HPC)
[9] = dose: 25.0 mg/kg/injection, schedule: Q01DX009 (ip), vehicle: Klucel (hydroxypropylcellulose) (HPC)
[10] = dose: 400.0 mg/kg/injection, schedule: Q01DX009 (ip), vehicle: Klucel (hydroxypropylcellulose) (HPC)

Question: Which results are given for `CCC(C)C1NC(=O)C(NC(=O)c2c3[nH]c4c(C(=O)NC5C(=O)NC(C(C)CC)C(=O)N6CCCC6C(=O)N(C)CC(=O)N(C)C(C(C)C)C(=O)OC5C)ccc(C)c4oc-3c(C)c(=O)c2=O)C(C)OC(=O)C(C(C)C)N(C)C(=O)CN(C)C(=O)C2CCCN2C1=O` (stereo unspecified)?
Answer: T/C (dose: 0.05 mg/kg/injection, schedule: Q01DX009 (ip), vehicle: water): 98 % of control; T/C (dose: 0.1 mg/kg/injection, schedule: Q01DX009 (ip), vehicle: water): 102 % of control; T/C (dose: 0.2 mg/kg/injection, schedule: Q01DX009 (ip), vehicle: water): 97 % of control; T/C (dose: 0.4 mg/kg/injection, schedule: Q01DX009 (ip), vehicle: water): 103 % of control; T/C (dose: 0.8 mg/kg/injection, schedule: Q01DX009 (ip), vehicle: water): 100 % of control; T/C (dose: 1.6 mg/kg/injection, schedule: Q01DX009 (ip), vehicle: water): 101 % of control

Question: With `CN(C)CCCN1c2ccccc2CCc2ccccc21` as the compound, how does the T/C (dose: 3.12 mg/kg/injection, schedule: Q01DX009 (ip), vehicle: saline) read?
Answer: 95 % of control

Question: And the T/C [1]?
Answer: 102 % of control

Question: What about the T/C [2] of the same compound?
Answer: 104 % of control

Question: And the T/C (dose: 25.0 mg/kg/injection, schedule: Q01DX009 (ip), vehicle: saline)?
Answer: 93 % of control

Question: What about the T/C (dose: 50.0 mg/kg/injection, schedule: Q01DX009 (ip), vehicle: saline) of the same compound?
Answer: 104 % of control

Question: For `CCOc1cc([N+](=O)[O-])c(OCC)cc1Cl`, which T/C [3] is on record?
Answer: 94 % of control

Question: What about the T/C [4] of the same compound?
Answer: 97 % of control

Question: What about the T/C (dose: 400.0 mg/kg/injection, schedule: Q01DX009 (ip), vehicle: saline with Tween-80) of the same compound?
Answer: 96 % of control

Question: How did the T/C (dose: 3.1 mg/kg/injection, schedule: Q01DX009 (ip), vehicle: other) turn out when `CN(C)CCCN1c2ccc(O)cc2Sc2ccc(Cl)cc21` was run?
Answer: 92 % of control

Question: What about the T/C [5] of the same compound?
Answer: 117 % of control

Question: What about the T/C [3] of the same compound?
Answer: 124 % of control

Question: Which T/C [3] does the source give for `CN(C)c1ccc2cc(S(=O)(=O)O)cc(O)c2c1` here?
Answer: 97 % of control

Question: What about the T/C [4] of the same compound?
Answer: 94 % of control

Question: Which results are given for `CCOP(=O)(N1CC1(C)C)N1CC1(C)C` (stereo unspecified)?
Answer: T/C (dose: 5.0 mg/kg/injection, schedule: Q01DX009 (ip), vehicle: saline): 109 % of control; T/C (dose: 10.0 mg/kg/injection, schedule: Q01DX009 (ip), vehicle: saline): 104 % of control; T/C (dose: 20.0 mg/kg/injection, schedule: Q01DX009 (ip), vehicle: saline): 109 % of control; T/C (dose: 30.0 mg/kg/injection, schedule: Q01DX009 (ip), vehicle: saline): 118 % of control

Question: How did the T/C (dose: 3.13 mg/kg/injection, schedule: Q01DX009 (ip), vehicle: saline) turn out when `CC(=O)OC(CC(=O)CC(O)(C(F)(F)F)C(F)(F)F)(C(F)(F)F)C(F)(F)F` was run?
Answer: 102 % of control

Question: And the T/C (dose: 3.13 mg/kg/injection, schedule: Q04DX003 (ip), vehicle: saline)?
Answer: 97 % of control

Question: What about the T/C [1] of the same compound?
Answer: 107 % of control

Question: And the T/C (dose: 6.25 mg/kg/injection, schedule: Q04DX003 (ip), vehicle: saline)?
Answer: 100 % of control

Question: And the T/C [2]?
Answer: 92 % of control

Question: What about the T/C (dose: 12.5 mg/kg/injection, schedule: Q04DX003 (ip), vehicle: saline) of the same compound?
Answer: 100 % of control

Question: Which results are given for `CC1(c2ccc(O)cc2)CCC(C(C)(C)c2ccc(O)cc2)CC1` (stereo unspecified)?
Answer: T/C (dose: 50.0 mg/kg/injection, schedule: Q01DX009 (ip), vehicle: Klucel (hydroxypropylcellulose) (HPC)): 87 % of control; T/C [6]: 96 % of control; T/C [7]: 91 % of control

Question: `CC(=O)ON=C1C=CC(=C(C#N)c2ccccc2)C=C1` was tested. Which T/C (dose: 25.0 mg/kg/injection, schedule: Q01DX009 (ip), vehicle: saline with Tween-80) did it give?
Answer: 86 % of control

Question: And the T/C [5]?
Answer: 86 % of control

Question: And the T/C [3]?
Answer: 92 % of control

Question: Which T/C [8] does the source give for `CCCCCCCCCc1ccc(OC(=O)CCC)cc1` here?
Answer: 106 % of control

Question: What about the T/C [9] of the same compound?
Answer: 94 % of control

Question: And the T/C [10]?
Answer: 87 % of control

Question: What does the source list for `O=C(OC1CCCCCCC1)C(F)(F)F`?
Answer: T/C [6]: 100 % of control; T/C [10]: 117 % of control

Question: Which results are given for `Nc1c([N+](=O)[O-])ccc2ccccc12`?
Answer: T/C (dose: 100.0 mg/kg/injection, schedule: Q04DX003 (ip), vehicle: saline with Tween-80): 108 % of control; T/C (dose: 200.0 mg/kg/injection, schedule: Q04DX003 (ip), vehicle: saline with Tween-80): 91 % of control; T/C (dose: 400.0 mg/kg/injection, schedule: Q04DX003 (ip), vehicle: saline with Tween-80): 100 % of control

Question: For `O=[N+]([O-])c1ccc(C(O)C=C(C(F)(F)F)C(F)(F)F)cc1` (stereo unspecified), which T/C [8] is on record?
Answer: 93 % of control

Question: And the T/C [9]?
Answer: 89 % of control

Question: How did the T/C (dose: 0.03 mg/kg/injection, schedule: Q01DX001 (ip), vehicle: saline) turn out when `CC[C@@]1(O)C[C@H](OC2CC(N(C)C)C(OC3CC(O)C(O[C@@H]4O[C@@H](C)C(=O)C=C4N)C(C)O3)C(C)O2)c2c(cc3c(c2O)C(=O)c2c(O)ccc(O)c2C3=O)[C@H]1C(=O)OC` (stereo partly specified) was run?
Answer: 113 % of control

Question: What about the T/C (dose: 0.05 mg/kg/injection, schedule: Q01DX001 (ip), vehicle: saline) of the same compound?
Answer: 109 % of control

Question: And the T/C (dose: 0.38 mg/kg/injection, schedule: Q01DX009 (ip), vehicle: saline)?
Answer: 178 % of control

Question: What about the T/C (dose: 0.75 mg/kg/injection, schedule: Q01DX009 (ip), vehicle: saline) of the same compound?
Answer: 167 % of control

Question: What about the T/C (dose: 1.5 mg/kg/injection, schedule: Q01DX009 (ip), vehicle: saline) of the same compound?
Answer: 223 % of control

Question: And the T/C (dose: 1.6 mg/kg/injection, schedule: Q01DX001 (ip), vehicle: saline)?
Answer: 159 % of control

Question: And the T/C (dose: 3.2 mg/kg/injection, schedule: Q01DX001 (ip), vehicle: saline)?
Answer: 114 % of control

Question: What about the T/C (dose: 1.0 micrograms/kg/injection, schedule: Q01DX005 (ip), vehicle: Klucel (hydroxypropylcellulose) (HPC)) of the same compound?
Answer: 110 % of control

Question: And the T/C (dose: 2.0 micrograms/kg/injection, schedule: Q01DX005 (ip), vehicle: Klucel (hydroxypropylcellulose) (HPC))?
Answer: 100 % of control

Question: And the T/C (dose: 4.0 micrograms/kg/injection, schedule: Q01DX005 (ip), vehicle: Klucel (hydroxypropylcellulose) (HPC))?
Answer: 107 % of control

Question: What about the T/C (dose: 8.0 micrograms/kg/injection, schedule: Q01DX005 (ip), vehicle: Klucel (hydroxypropylcellulose) (HPC)) of the same compound?
Answer: 103 % of control

Question: What does the source list for `CCSc1nc(C)cc(Cl)n1`?
Answer: T/C [5]: 100 % of control; T/C [3]: 104 % of control; T/C [4]: 88 % of control

Question: Which T/C [6] does the source give for `Cc1cccc(C)c1NC(=O)Nc1cccc(Cl)c1` here?
Answer: 100 % of control

Question: What about the T/C (dose: 100.0 mg/kg/injection, schedule: Q04DX003 (ip), vehicle: Klucel (hydroxypropylcellulose) (HPC)) of the same compound?
Answer: 100 % of control

Question: And the T/C [7]?
Answer: 100 % of control

Question: And the T/C (dose: 200.0 mg/kg/injection, schedule: Q04DX003 (ip), vehicle: Klucel (hydroxypropylcellulose) (HPC))?
Answer: 100 % of control

Question: And the T/C [10]?
Answer: 86 % of control

Question: And the T/C (dose: 400.0 mg/kg/injection, schedule: Q04DX003 (ip), vehicle: Klucel (hydroxypropylcellulose) (HPC))?
Answer: 100 % of control

Question: How did the T/C (dose: 1.56 mg/kg/injection, schedule: Q01DX009 (ip), vehicle: suspension in saline) turn out when `Cc1c2c(ccc3ccccc32)c[n+]2ccccc12` was run?
Answer: 98 % of control

Question: And the T/C (dose: 3.12 mg/kg/injection, schedule: Q01DX009 (ip), vehicle: suspension in saline)?
Answer: 101 % of control

Question: And the T/C (dose: 6.25 mg/kg/injection, schedule: Q01DX009 (ip), vehicle: suspension in saline)?
Answer: 106 % of control

Question: What about the T/C (dose: 12.5 mg/kg/injection, schedule: Q01DX009 (ip), vehicle: suspension in saline) of the same compound?
Answer: 103 % of control

Question: What does the source list for `Cc1ccccc1Oc1ccccc1N`?
Answer: T/C (dose: 50.0 mg/kg/injection, schedule: Q01DX009 (sc), vehicle: olive oil, sesame oil, peanut oil): 88 % of control; T/C (dose: 100.0 mg/kg/injection, schedule: Q01DX009 (sc), vehicle: olive oil, sesame oil, peanut oil): 90 % of control; T/C (dose: 200.0 mg/kg/injection, schedule: Q01DX009 (sc), vehicle: olive oil, sesame oil, peanut oil): 97 % of control; T/C (dose: 400.0 mg/kg/injection, schedule: Q01DX009 (sc), vehicle: olive oil, sesame oil, peanut oil): 90 % of control

Question: `O=C(OC1C=CC2CCC1C2)c1ccc([N+](=O)[O-])cc1` (stereo unspecified) was tested. Which T/C [5] did it give?
Answer: 91 % of control

Question: What about the T/C [3] of the same compound?
Answer: 96 % of control

Question: What about the T/C [4] of the same compound?
Answer: 93 % of control
